Measured values reported in US8729047B2, “Compositions for inhibiting redox-sensitive GTPases” (Board of Regents, The University of Texas System, priority 2010, dated 2014).
Where two headings read alike, the source gives them in different places.

How the values were obtained:
RhoC C20S = RhoC C20S (Homo sapiens, UniProt P08134, C20S); assay: Competitive binding assay, [3H]GDP-loaded Rho protein titrated with 6-TGDP (FIG. 16A); design: made in house; host or cells: E. coli
Procedure: (§1) FIG. 16. Kinetic properties of RhoC with 6-TGDP in the presence or absence of a redox agent. All kinetic analyses are described elsewhere herein. (A) ^appKD values of Rac1, RhoA, RhoC, and RhoC C20S for 6-TGDP were estimated to be 7.9, 11.6, 11.8, and 11.2 μM, respectively. ^trueKD values of Rac1, RhoA, […] for 6-TGDP were then calculated to be 5.1, 10.8, 11.1, and 10.5 μM, respectively, by using a compensation equation, ^trueKD for 6-TGDP=^appKD for 6-TGDP/(1+[[^3H]GDP]/^trueKD for GDP) (Heo, J., and Hong, I. (2010) Biochemistry 49, 3965-3976), in conjunction with the values given. […] The GDP dissociation rates from RhoC C20S by NO, .NO2, and N2O3 were estimated to be 0.02×10^−3, 0.05×10^−3, and 0.04×10^−3 s^−1, respectively. […] (D) ^appKD values of RhoC for [^3H]GDP in the presence or absence of DTT were estimated to be 22.4 μM and […], respectively. ^appKD values of C20S RhoC for [^3H]GDP in the presence or absence of DTT were determined to be 24.8 μM and 25.2 μM, respectively. The regression values associated with these fits were >0.8595. All data points associated with vertical standard error bars shown in this figure are the mean values of triplicate measurements.
(§2) Transition metal-free assay buffer and vials as described in a previous study (Heo et al. Biochemistry 49, 3965-3976 (2010)) were used for all kinetic assays. The kinetic assay buffer contains the highest grade of 50 mM NaCl, 10 mM MgCl2, 1 mM EDTA, and 0.1 mM DTPA in 50 mM TrisHCl (pH 7.4). Before performance of any of the assays, all protein samples also were dialyzed with a metal-free buffer under anaerobic conditions. As with RhoA and Rac1 (Heo et al. J. Biol. Chem. 280, 31003-31010 (2005)), C20S RhoC were expressed in E. coli and purified using anionic and size exclusion columns.
(§3) (a) A competitive binding assay was performed to determine the binding affinity of Rho GTPase and 6-TGDP. The radiolabeled [^3H]GDP-loaded Rho protein (1 μM) was titrated with various concentrations of 6-TGDP. The titrated Rho protein sample then was spotted onto a nitrocellulose membrane. Each membrane was washed three times with the assay buffer, and radioactivity was determined using a Beckman-Coulter scintillation counter. The radioactivity of the sample (Rho protein-bound [^3H]GDP) was converted into, and thus plotted, as the fraction of mol GDP per mol total Rho protein. The apparent dissociation constant (^appKD) of the Rho protein with [^3H]GDP in the presence of 6-TGDP was determined by using Prism software to fit the titration curve to a hyperbola.

RhoC = RhoC (Homo sapiens, UniProt P08134); assay: as above; design: made in house; host or cells: E. coli
Sequence of RhoC (P08134 whole entry): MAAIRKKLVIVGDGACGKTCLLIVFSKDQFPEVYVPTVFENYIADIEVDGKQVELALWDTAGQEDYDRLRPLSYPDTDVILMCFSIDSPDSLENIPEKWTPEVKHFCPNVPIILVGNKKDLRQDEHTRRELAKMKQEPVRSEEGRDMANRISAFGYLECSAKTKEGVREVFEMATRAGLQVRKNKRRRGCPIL
Procedure: as §1, §2, §3

ERM = ERM phosphorylation in activated T cells; assay type: cell-based
Procedure: FIG. 26. Determination of Rac1 activity and ERM phosphorylation. […] (A) The soluble cell extract was then used to perform Western blot analyses for Rac1 and the ERM. This cell extract also was used for the co-IP-based ESI-MS analysis (FIG. 8). (B) A Rac1 activity assay was colorimetrically determined using cell extract; the assay was performed with the Rac1 G-LISA Activation Assay Kit (Cat. No. BK125) (Denver, Colo.). To examine the level of phosphorylation of the ERM, cells were cultured in complete RPMI 1640 medium with ˜50 μCi of ^32P/mL before initiating stimulation of T cells. The collected cell extract was nutated with resin coupled with a human ERM (231C2a) antibody (Santa Cruz Biotechnology, CA) at 4° C. for 5 h. […] The immunoprecipitates were then analyzed by SDS-PAGE and autoradiographed. […] The data represented in the figure represent the mean values of triplicate measurements, and the vertical error bar indicates standard errors.

RhoA = target: T1, RhoA (Rattus norvegicus, UniProt P61589); assay: Co-IP ESI-MS of thioguanine nucleotide disulfide adduct in A7r5 cells; assay type: cell-based; conditions: for thioguanine nucleotide-RhoA disulfide adduct (Cys20): FIGS. 21, 22
T1 construct: endogenous in cells; host or cells: A7r5 cells (rat aortic vascular smooth muscle)
T1 sequence (P61589 whole entry): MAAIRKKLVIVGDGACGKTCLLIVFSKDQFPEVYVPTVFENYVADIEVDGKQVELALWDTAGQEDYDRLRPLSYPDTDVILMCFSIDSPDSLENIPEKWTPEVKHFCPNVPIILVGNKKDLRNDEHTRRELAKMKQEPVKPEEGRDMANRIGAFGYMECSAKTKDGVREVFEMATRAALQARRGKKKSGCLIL
Procedure: FIG. 21. Detection of 6-TGNP adduct from A7r5 and T cells. Experimental procedures using A7r5 (A and B) and T (C and D) cells, respectively, were identical to those of the experiments described in FIG. 19 and previous studies (Tiede et al. J. Clin. Invest. 111, 1133-1145 (2003); and Poppe et al. J. Immunol. 176, 640-651 (2006)). The cell extract was incubated with a monoclonal RhoA antibody (A and B) or a Rac1 antibody (C and D) coupled with resin. Resin was collected by centrifugation (5,000×g, 10 min), which was suspended in 50% methanol:0.1% formic acid. The protein portion was separated by brief centrifugation (3,000×g for 5 min), resuspended in a buffer containing 10 mM EDTA and 5 mM phosphate (pH 7.5), digested with trypsin for 10 h, and analyzed with MS. The MS peak at 1476.6 Da represents peptide-6-TGDP adduct; TC^20LLIVFSK-6-TGDP.
FIG. 22. Detection of 8-TGNP adduct from A7r5 cells. […] The indicated MS peak at 1476.6 Da represents peptide-8-TGDP adduct; TC^20LLIVFSK-8-TGDP (SEQ ID NO:4). The molecular weight of the peptide-8-TGDP adduct is exactly the same as that of the peptide-6-TGDP adduct. A and B, respectively, represent any of samples taken from a cell culture with and without treatment with 8-TG.

T24 cells = assay: Tumor cell apoptosis / viability (MTT); assay type: cell-based, human
Source text: (§4) Cell viability was examined employing 3-(4,5-dimethylthiazol-2-yl)-2,5-diphenyl tetrazolium bromide (MTT) (Cabello et al. Int. J. Oncol. 23, 697-704 (2003)).

HT1080 cells = assay: Tumor cell apoptosis / viability (MTT); assay type: cell-based, human
Source text: as §4

[1] = [3H]GDP-loaded Rho protein 1 μM titrated with 6-TGDP, FIG. 16A, read-out: appKD for 6-TGDP
[2] = determined within this study, read-out: trueKD for GDP
[3] = 6-TG 1 μM every 48 h with DETA/NO or GSNO 10 μM, longer than ~10 days
[4] = 8-TG 1 μM with NO donor (DETA/NO or GSNO 10 μM), not shown

Sequence of RhoC C20S (P08134 whole entry C20S): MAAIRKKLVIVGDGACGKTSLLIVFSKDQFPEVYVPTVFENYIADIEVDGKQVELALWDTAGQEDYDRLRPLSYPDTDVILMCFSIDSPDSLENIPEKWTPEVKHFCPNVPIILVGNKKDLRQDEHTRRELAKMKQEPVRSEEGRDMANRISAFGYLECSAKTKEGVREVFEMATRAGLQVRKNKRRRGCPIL

Nc1nc2c(ncn2[C@@H]2O[C@H](COP(=O)(O)OP(=O)(O)O)[C@@H](O)[C@H]2O)c(=S)[nH]1 [6-TGDP, 6-thioguanosine diphosphate]
Kd (RhoC C20S; [1]): 11.2 µM
Kd (RhoC C20S; calculated by compensation equation, FIG. 16A, fourth value of the list, read-out: trueKD for 6-TGDP): 10.5 µM
Kd (RhoC; [1]): 11.8 µM
Kd (RhoC; calculated by compensation equation, FIG. 16A, read-out: trueKD for 6-TGDP): 11.1 µM

Nc1nc2c(ncn2[C@@H]2O[C@H](COP(=O)(O)OP(=O)(O)O)[C@@H](O)[C@H]2O)c(=O)[nH]1 [GDP]
Kd (RhoC C20S; [2]): 14.2 ± 8 µM
Kd (RhoC; [2]): 15 ± 8 µM

Nc1nc2nc[nH]c2c(=S)[nH]1 [6-TG, 6-thioguanine]
blockage of ERM dephosphorylation (ERM; 6-TG plus DETA/NO 10 μM): increases the blockage of the dephosphorylated form of ERM
ERM phosphorylation (ERM; 6-TG, after three days, FIG. 26B): large portion of ERM in T cells was observed to have been phosphorylated
thioguanine nucleotide-RhoA disulfide adduct (Cys20) (RhoA): biologically inactive 6-TGNP-RhoA disulfide adduct
MS peak representing 6-TGNP-RhoA adduct (RhoA; both 6-TG and NO, intensity not truly quantitative): increased
viability of 6-TG-resisting cells (T24 cells; [3]): decrease in the viability
apoptosis within a day (T24 cells; 6-TG 1 μM, not shown): most cells underwent apoptosis
initial cells that resisted additional treatment (T24 cells; 6-TG 1 μM, not shown): ~20%
viability of 6-TG-resisting cells (HT1080 cells; [3]): decrease in the viability
apoptosis within a day (HT1080 cells; 6-TG 1 μM, not shown): most cells underwent apoptosis
initial cells that resisted additional treatment (HT1080 cells; 6-TG 1 μM, not shown): ~20%

Nc1nc2[nH]c(S)nc2c(=O)[nH]1 [8-TG, 2-amino-8-mercapto-1H-purin-6(9H)-one]
screen of 6-TP isomers on ERM dephosphorylation (ERM; not shown): blocks the dephosphorylation of ERM
thioguanine nucleotide-RhoA disulfide adduct (Cys20) (RhoA): biologically inactive 8-TGNPRhoA disulfide adduct
viability and anchorage-independent growth (T24 cells; [4]): did not affect
viability and anchorage-independent growth (HT1080 cells; [4]): did not affect
